Test results: ChEMBL document CHEMBL2429768, “Eco-friendly synthesis and antimicrobial activities of substituted-5-(1H-indol-3-yl)methylene)-2,2-dimethyl-1,3-dioxane-4,6-dione derivatives” (2013)
Values after ≈ are worked out from the molar mass of the structure shown.

Legend:
Assay type in all cases: functional
Aspergillus flavus [1] = test: Antifungal activity against Aspergillus flavus at 50 ug/ml after 72 hrs by agar well diffusion method; conditions: read-out: DIZ
Klebsiella pneumoniae [2] = test: Antibacterial activity against Klebsiella pneumoniae after 24 hrs by agar well diffusion method
Aspergillus flavus [3] = test: Antifungal activity against Aspergillus flavus at 200 ug/ml after 72 hrs by agar well diffusion method; conditions: read-out: DIZ
Aspergillus niger [4] = test: Antifungal activity against Aspergillus niger at 50 ug/ml after 72 hrs by agar well diffusion method; conditions: read-out: DIZ
Aspergillus flavus [5] = test: Antifungal activity against Aspergillus flavus at 500 ug/ml after 72 hrs by agar well diffusion method; conditions: read-out: DIZ
Rhizoctonia solani [6] = test: Antifungal activity against Rhizoctonia solani at 50 ug/ml after 72 hrs by agar well diffusion method; conditions: read-out: DIZ
Aspergillus niger [7] = test: Antifungal activity against Aspergillus niger at 300 ug/ml after 72 hrs by agar well diffusion method; conditions: read-out: DIZ
Staphylococcus aureus [8] = test: Antibacterial activity against Staphylococcus aureus ATCC 6538 at 50 ug/ml after 24 hrs by agar well diffusion method; conditions: ATCC 6538, 24 h, read-out: DIZ
Klebsiella pneumoniae [9] = test: Antibacterial activity against Klebsiella pneumoniae at 300 ug/ml after 24 hrs by agar well diffusion method; conditions: read-out: DIZ
Klebsiella pneumoniae [10] = test: Antibacterial activity against Klebsiella pneumoniae at 200 ug/ml after 24 hrs by agar well diffusion method; conditions: read-out: DIZ
Klebsiella pneumoniae [11] = test: Antibacterial activity against Klebsiella pneumoniae at 500 ug/ml after 24 hrs by agar well diffusion method; conditions: read-out: DIZ
Escherichia coli [12] = test: Antibacterial activity against Escherichia coli ATCC 8739 at 500 ug/ml after 24 hrs by agar well diffusion method; conditions: ATCC 8739, 24 h, read-out: DIZ
Klebsiella pneumoniae [13] = test: Antibacterial activity against Klebsiella pneumoniae at 50 ug/ml after 24 hrs by agar well diffusion method; conditions: read-out: DIZ
Fusarium oxysporum [14] = test: Antifungal activity against Fusarium oxysporum at 50 ug/ml after 72 hrs by agar well diffusion method; conditions: read-out: DIZ
Escherichia coli [15] = test: Antibacterial activity against Escherichia coli ATCC 8739 at 200 ug/ml after 24 hrs by agar well diffusion method; conditions: ATCC 8739, 24 h, read-out: DIZ
Bacillus subtilis [16] = test: Antibacterial activity against Bacillus subtilis at 100 ug/ml after 24 hrs by agar well diffusion method; conditions: read-out: DIZ
Bacillus subtilis [17] = test: Antibacterial activity against Bacillus subtilis after 24 hrs by agar well diffusion method
Klebsiella pneumoniae [18] = test: Antibacterial activity against Klebsiella pneumoniae at 100 ug/ml after 24 hrs by agar well diffusion method; conditions: read-out: DIZ
Staphylococcus aureus [19] = test: Antibacterial activity against Staphylococcus aureus ATCC 6538 at 100 ug/ml after 24 hrs by agar well diffusion method; conditions: ATCC 6538, 24 h, read-out: DIZ
Fusarium oxysporum [20] = test: Antifungal activity against Fusarium oxysporum at 100 ug/ml after 72 hrs by agar well diffusion method; conditions: read-out: DIZ
Rhizoctonia solani [21] = test: Antifungal activity against Rhizoctonia solani at 500 ug/ml after 72 hrs by agar well diffusion method; conditions: read-out: DIZ
Escherichia coli [22] = test: Antibacterial activity against Escherichia coli ATCC 8739 at 50 ug/ml after 24 hrs by agar well diffusion method; conditions: ATCC 8739, 24 h, read-out: DIZ
Fusarium oxysporum [23] = test: Antifungal activity against Fusarium oxysporum at 500 ug/ml after 72 hrs by agar well diffusion method; conditions: read-out: DIZ
Rhizoctonia solani [24] = test: Antifungal activity against Rhizoctonia solani at 200 ug/ml after 72 hrs by agar well diffusion method; conditions: read-out: DIZ
Staphylococcus aureus [25] = test: Antibacterial activity against Staphylococcus aureus ATCC 6538 at 200 ug/ml after 24 hrs by agar well diffusion method; conditions: ATCC 6538, 24 h, read-out: DIZ
Aspergillus flavus [26] = test: Antifungal activity against Aspergillus flavus at 300 ug/ml after 72 hrs by agar well diffusion method; conditions: read-out: DIZ
Bacillus subtilis [27] = test: Antibacterial activity against Bacillus subtilis at 300 ug/ml after 24 hrs by agar well diffusion method; conditions: read-out: DIZ
Bacillus subtilis [28] = test: Antibacterial activity against Bacillus subtilis at 200 ug/ml after 24 hrs by agar well diffusion method; conditions: read-out: DIZ
Rhizoctonia solani [29] = test: Antifungal activity against Rhizoctonia solani at 300 ug/ml after 72 hrs by agar well diffusion method; conditions: read-out: DIZ
Escherichia coli [30] = test: Antibacterial activity against Escherichia coli ATCC 8739 after 24 hrs by agar well diffusion method; conditions: ATCC 8739, 24 h
Aspergillus flavus [31] = test: Antifungal activity against Aspergillus flavus after 72 hrs by agar well diffusion method
Fusarium oxysporum [32] = test: Antifungal activity against Fusarium oxysporum at 300 ug/ml after 72 hrs by agar well diffusion method; conditions: read-out: DIZ
Rhizoctonia solani [33] = test: Antifungal activity against Rhizoctonia solani after 72 hrs by agar well diffusion method
Staphylococcus aureus [34] = test: Antibacterial activity against Staphylococcus aureus ATCC 6538 after 24 hrs by agar well diffusion method; conditions: ATCC 6538, 24 h
Escherichia coli [35] = test: Antibacterial activity against Escherichia coli ATCC 8739 at 100 ug/ml after 24 hrs by agar well diffusion method; conditions: ATCC 8739, 24 h, read-out: DIZ
Escherichia coli [36] = test: Antibacterial activity against Escherichia coli ATCC 8739 at 300 ug/ml after 24 hrs by agar well diffusion method; conditions: ATCC 8739, 24 h, read-out: DIZ
Aspergillus niger [37] = test: Antifungal activity against Aspergillus niger at 200 ug/ml after 72 hrs by agar well diffusion method; conditions: read-out: DIZ
Staphylococcus aureus [38] = test: Antibacterial activity against Staphylococcus aureus ATCC 6538 at 300 ug/ml after 24 hrs by agar well diffusion method; conditions: ATCC 6538, 24 h, read-out: DIZ
Aspergillus niger [39] = test: Antifungal activity against Aspergillus niger at 100 ug/ml after 72 hrs by agar well diffusion method; conditions: read-out: DIZ
Rhizoctonia solani [40] = test: Antifungal activity against Rhizoctonia solani at 100 ug/ml after 72 hrs by agar well diffusion method; conditions: read-out: DIZ
Fusarium oxysporum [41] = test: Antifungal activity against Fusarium oxysporum after 72 hrs by agar well diffusion method
Fusarium oxysporum [42] = test: Antifungal activity against Fusarium oxysporum at 200 ug/ml after 72 hrs by agar well diffusion method; conditions: read-out: DIZ
Staphylococcus aureus [43] = test: Antibacterial activity against Staphylococcus aureus ATCC 6538 at 500 ug/ml after 24 hrs by agar well diffusion method; conditions: ATCC 6538, 24 h, read-out: DIZ
Bacillus subtilis [44] = test: Antibacterial activity against Bacillus subtilis at 500 ug/ml after 24 hrs by agar well diffusion method; conditions: read-out: DIZ
Bacillus subtilis [45] = test: Antibacterial activity against Bacillus subtilis at 50 ug/ml after 24 hrs by agar well diffusion method; conditions: read-out: DIZ
Aspergillus flavus [46] = test: Antifungal activity against Aspergillus flavus at 100 ug/ml after 72 hrs by agar well diffusion method; conditions: read-out: DIZ
Aspergillus niger [47] = test: Antifungal activity against Aspergillus niger at 500 ug/ml after 72 hrs by agar well diffusion method; conditions: read-out: DIZ
Aspergillus niger [48] = test: Antifungal activity against Aspergillus niger after 72 hrs by agar well diffusion method

MIC (Klebsiella pneumoniae [2]): 10 µg/mL (≈ 31.6 µM)
MIC (Bacillus subtilis [17]): 20 µg/mL (≈ 63.2 µM)
MIC (Escherichia coli [30]): 10 µg/mL (≈ 31.6 µM)
MIC (Aspergillus flavus [31]): 35 µg/mL (≈ 111 µM)
MIC (Rhizoctonia solani [33]): 25 µg/mL (≈ 79 µM)
MIC (Staphylococcus aureus [34]): 20 µg/mL (≈ 63.2 µM)
MIC (Fusarium oxysporum [41]): 25 µg/mL (≈ 79 µM)
MIC (Aspergillus niger [48]): 30 µg/mL (≈ 94.9 µM)
SMILES: CC1(C)OC(=O)C(=Cc2c[nH]c3ccc([N+](=O)[O-])cc23)C(=O)O1
zone of inhibition at 50 µg/mL (Aspergillus flavus [1]): 5 mm
zone of inhibition at 200 µg/mL (Aspergillus flavus [3]): 13 mm
zone of inhibition at 50 µg/mL (Aspergillus niger [4]): 7 mm
zone of inhibition at 500 µg/mL (Aspergillus flavus [5]): 24 mm
zone of inhibition at 50 µg/mL (Rhizoctonia solani [6]): 10 mm
zone of inhibition at 300 µg/mL (Aspergillus niger [7]): 19 mm
zone of inhibition at 50 µg/mL (Staphylococcus aureus [8]): 8 mm
zone of inhibition at 300 µg/mL (Klebsiella pneumoniae [9]): 25 mm
zone of inhibition at 200 µg/mL (Klebsiella pneumoniae [10]): 20 mm
zone of inhibition at 500 µg/mL (Klebsiella pneumoniae [11]): 34 mm
zone of inhibition at 500 µg/mL (Escherichia coli [12]): 33 mm
zone of inhibition at 50 µg/mL (Klebsiella pneumoniae [13]): 11 mm
zone of inhibition at 50 µg/mL (Fusarium oxysporum [14]): 10 mm
zone of inhibition at 200 µg/mL (Escherichia coli [15]): 17 mm
zone of inhibition at 100 µg/mL (Bacillus subtilis [16]): 11 mm
zone of inhibition at 100 µg/mL (Klebsiella pneumoniae [18]): 16 mm
zone of inhibition at 100 µg/mL (Staphylococcus aureus [19]): 12 mm
zone of inhibition at 100 µg/mL (Fusarium oxysporum [20]): 14 mm
zone of inhibition at 500 µg/mL (Rhizoctonia solani [21]): 32 mm
zone of inhibition at 50 µg/mL (Escherichia coli [22]): 10 mm
zone of inhibition at 500 µg/mL (Fusarium oxysporum [23]): 31 mm
zone of inhibition at 200 µg/mL (Rhizoctonia solani [24]): 19 mm
zone of inhibition at 200 µg/mL (Staphylococcus aureus [25]): 15 mm
zone of inhibition at 300 µg/mL (Aspergillus flavus [26]): 17 mm
zone of inhibition at 300 µg/mL (Bacillus subtilis [27]): 16 mm
zone of inhibition at 200 µg/mL (Bacillus subtilis [28]): 13 mm
zone of inhibition at 300 µg/mL (Rhizoctonia solani [29]): 24 mm
zone of inhibition at 300 µg/mL (Fusarium oxysporum [32]): 21 mm
zone of inhibition at 100 µg/mL (Escherichia coli [35]): 15 mm
zone of inhibition at 300 µg/mL (Escherichia coli [36]): 22 mm
zone of inhibition at 200 µg/mL (Aspergillus niger [37]): 15 mm
zone of inhibition at 300 µg/mL (Staphylococcus aureus [38]): 18 mm
zone of inhibition at 100 µg/mL (Aspergillus niger [39]): 11 mm
zone of inhibition at 100 µg/mL (Rhizoctonia solani [40]): 15 mm
zone of inhibition at 200 µg/mL (Fusarium oxysporum [42]): 17 mm
zone of inhibition at 500 µg/mL (Staphylococcus aureus [43]): 28 mm
zone of inhibition at 500 µg/mL (Bacillus subtilis [44]): 24 mm
zone of inhibition at 50 µg/mL (Bacillus subtilis [45]): 6 mm
zone of inhibition at 100 µg/mL (Aspergillus flavus [46]): 10 mm
zone of inhibition at 500 µg/mL (Aspergillus niger [47]): 26 mm
